# Experimental data reported in publication PMC2819846 (Mutation research, 2008).
# Values joined by “and” are separate entries in the source; they are usually repeats but may differ in a detail not shown here. Equal values may be shown once. Read-outs that look alike come from different tables or passages of the source.
# Legend:
# Salmonella = settings: cited from earlier work
# Salmonella TA98 = assay: Salmonella plate-incorporation mutagenicity assay, strain TA98, with S9 mix; format: cell-based
# Salmonella TA100 = assay: Salmonella plate-incorporation mutagenicity assay, strain TA100; format: cell-based
# Salmonella TA104 = assay: Salmonella plate-incorporation mutagenicity assay, strain TA104, with S9 mix; format: cell-based
# strain TA100 = format: cell-based, Salmonella; settings: TA100 liquid-suspension; for Rev/10^6 survivors: DMSO 0.8; for Percent survival: DMSO 100
# [1] = test system: DNA from Salmonella TA100; assay: Stable DNA adducts by 32P-postlabeling in DNA of treated TA100; format: cell-based; settings: DMSO 0.024 ± 0.000
# [2] = test system: DNA from Salmonella TA100; assay: Abasic sites by aldehydic-site assay in DNA of treated TA100; format: cell-based; settings: DMSO 5.9 ± 0.33
smiles,measurement,setting,value
"c1ccc2c(c1)ccc1cc3c(cc12)sc1ccccc13 [BPT, benzo[b]phenanthro[2,3-d]thiophene]",Mutagenicity in Salmonella,Salmonella,mutagenic
"O=S1(=O)C=Cc2c1ccc1ccc3ccccc3c21 [P[3,4-b]T sulfone, Phenanthro[3,4-b]thiophene sulfone]",Rev/plate,"Salmonella TA98; TA98 +S9, Test 1, 2 µg/plate, zero-dose 33/40/39",328 rev/plate
same,Rev/plate,"Salmonella TA98; TA98 +S9, Test 1, 5 µg/plate, zero-dose 33/40/39",982 rev/plate
same,Rev/plate,"Salmonella TA98; TA98 +S9, Test 1, 10 µg/plate, zero-dose 33/40/39",1373 rev/plate
same,Rev/plate,"Salmonella TA98; TA98 +S9, Test 1, 20 µg/plate, zero-dose 33/40/39",1324 rev/plate
same,Rev/plate,"Salmonella TA98; TA98 +S9, Test 1, 40 µg/plate, zero-dose 33/40/39",1124 rev/plate
same,Rev/plate,"Salmonella TA98; TA98 +S9, Test 1, 80 µg/plate, zero-dose 33/40/39",1268 rev/plate
same,Rev/plate,"Salmonella TA98; TA98 +S9, Test 2, 0.5 µg/plate, zero-dose 43/41/30",41/57
same,Rev/plate,"Salmonella TA98; TA98 +S9, Test 2, 1 µg/plate, zero-dose 43/41/30",63/67
same,Rev/plate,"Salmonella TA98; TA98 +S9, Test 2, 2.5 µg/plate, zero-dose 43/41/30",263/237
same,Rev/plate,"Salmonella TA98; TA98 +S9, Test 2, 5 µg/plate, zero-dose 43/41/30",765/708
same,Rev/plate,"Salmonella TA98; TA98 +S9, Test 3, 0.5 µg/plate, zero-dose 49/50/50",56/52
same,Rev/plate,"Salmonella TA98; TA98 +S9, Test 3, 1 µg/plate, zero-dose 49/50/50",124/86
same,Rev/plate,"Salmonella TA98; TA98 +S9, Test 3, 2.5 µg/plate, zero-dose 49/50/50",293/366
same,Rev/plate,"Salmonella TA98; TA98 +S9, Test 3, 5 µg/plate, zero-dose 49/50/50",1078/922
same,"Mutagenic potency, Revertants/µg ± S.E., TA98","Salmonella TA98; plate-incorporation, +S9",143 rev/µg and 143 ± 19 rev/µg
same,Mutagenicity call TA98,"Salmonella TA98; plate-incorporation, +S9","(+) (Called mutagenic (+) based on showing reproducible, dose-related increases in rev/plate that reached or exceeded 2-fold relative to zero-dose controls)"
same,Rev/plate,"Salmonella TA100; TA100 +S9, Test 3, 0.1 µg/plate, zero-dose 127/118/125",239/190
same,Rev/plate,"Salmonella TA100; TA100 +S9, Test 3, 0.25 µg/plate, zero-dose 127/118/125",368/365
same,Rev/plate,"Salmonella TA100; TA100 +S9, Test 3, 0.5 µg/plate, zero-dose 127/118/125",681/795
same,Rev/plate,"Salmonella TA100; TA100 +S9, Test 3, 1 µg/plate, zero-dose 127/118/125",1332/1283
same,Rev/plate,"Salmonella TA100; TA100 +S9, Test 3, 2.5 µg/plate, zero-dose 127/118/125",2801/2710
same,Rev/plate,"Salmonella TA100; TA100 +S9, Test 3, 5 µg/plate, zero-dose 127/118/125",3090/3170
same,Rev/plate,"Salmonella TA100; TA100 +S9, Test 4, 0.1 µg/plate, zero-dose 112/140/115",197/195
same,Rev/plate,"Salmonella TA100; TA100 +S9, Test 4, 0.25 µg/plate, zero-dose 112/140/115",284/297
same,Rev/plate,"Salmonella TA100; TA100 +S9, Test 4, 0.5 µg/plate, zero-dose 112/140/115",453/514
same,Rev/plate,"Salmonella TA100; TA100 +S9, Test 4, 1 µg/plate, zero-dose 112/140/115",380/383
same,Rev/plate,"Salmonella TA100; TA100 +S9, Test 4, 2.5 µg/plate, zero-dose 112/140/115",1885 rev/plate
same,Rev/plate,"Salmonella TA100; TA100 +S9, Test 5, 0.1 µg/plate, zero-dose 102/119/99",194/197
same,Rev/plate,"Salmonella TA100; TA100 +S9, Test 5, 0.25 µg/plate, zero-dose 102/119/99",255/245
same,Rev/plate,"Salmonella TA100; TA100 +S9, Test 5, 0.5 µg/plate, zero-dose 102/119/99",504/448
same,Rev/plate,"Salmonella TA100; TA100 +S9, Test 5, 1 µg/plate, zero-dose 102/119/99",1037/993
same,Rev/plate,"Salmonella TA100; TA100 +S9, Test 5, 2.5 µg/plate, zero-dose 102/119/99",2935/2875
same,"Mutagenic potency, Revertants/µg ± S.E., TA100","Salmonella TA100; plate-incorporation, +S9",914 ± 113 rev/µg
same,Mutagenicity call TA100,"Salmonella TA100; plate-incorporation, +S9","(+) (Called mutagenic (+) based on showing reproducible, dose-related increases in rev/plate that reached or exceeded 2-fold relative to zero-dose controls)"
same,Mutagenicity without S9 mix (direct-acting activity),Salmonella TA100; without S9 mix,required metabolic activation to be mutagenic
same,Rev/plate,"Salmonella TA104; TA104 +S9, Test 2, 2.5 µg/plate, zero-dose 276/260/270",1068/1015
same,Rev/plate,"Salmonella TA104; TA104 +S9, Test 2, 5 µg/plate, zero-dose 276/260/270",1603/1565
same,Rev/plate,"Salmonella TA104; TA104 +S9, Test 2, 10 µg/plate, zero-dose 276/260/270",1488/1583
same,Rev/plate,"Salmonella TA104; TA104 +S9, Test 2, 20 µg/plate, zero-dose 276/260/270",706/778
same,Rev/plate,"Salmonella TA104; TA104 +S9, Test 3, 2.5 µg/plate, zero-dose 402/395/336",1027/982
same,Rev/plate,"Salmonella TA104; TA104 +S9, Test 3, 5 µg/plate, zero-dose 402/395/336",1650/1580
same,Rev/plate,"Salmonella TA104; TA104 +S9, Test 3, 10 µg/plate, zero-dose 402/395/336",1652/1652
same,Rev/plate,"Salmonella TA104; TA104 +S9, Test 3, 20 µg/plate, zero-dose 402/395/336",758/919
same,"Mutagenic potency, Revertants/µg ± S.E., TA104","Salmonella TA104; plate-incorporation, +S9",262 ± 135 rev/µg
same,Mutagenicity call TA104,"Salmonella TA104; plate-incorporation, +S9","(+) (Called mutagenic (+) based on showing reproducible, dose-related increases in rev/plate that reached or exceeded 2-fold relative to zero-dose controls)"
same,Fold increase in mutant frequency relative to DMSO-treated cells,strain TA100; 10 µg/ml,17.6 fold
same,Rev/10^6 survivors,strain TA100; 10 µg/ml,14.1 Rev/10^6 survivors
same,Percent survival,strain TA100; 10 µg/ml,56%
same,Fold increase in mutant frequency relative to DMSO-treated cells,strain TA100; 20 µg/ml,62.1 fold
same,Rev/10^6 survivors,strain TA100; 20 µg/ml,49.1 Rev/10^6 survivors
same,Percent survival,strain TA100; 20 µg/ml,37%
same,Stable adducts/10^8 nucleotides ± S.E,"[1]; TA100, 10 µg/ml",Not detected
same,Stable adducts/10^8 nucleotides ± S.E,"[1]; TA100, 20 µg/ml",Not detected
same,Abasic sites/10^5 nucleotides ± S.E,"[2]; TA100, 10 µg/ml",18.4 ± 0.64 sites/10^5 nucleotides
same,Abasic sites/10^5 nucleotides ± S.E,"[2]; TA100, 20 µg/ml",15.1 ± 0.43 sites/10^5 nucleotides
